# According to PubChem BioAssay (NCI):
# Where “and” joins values, the source holds several entries; their conditions need not be identical. Equal entries are not always repeated.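 Values below derive from 48-hour exposures of cells grown in 96-well plates, with endpoints linearly interpolated between the two concentrations bracketing the appropriate inhibition level. The concentration for 50% growth inhibition is given as GI50. TGI marks complete inhibition of growth.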
# How the values were obtained:
# Experiment in all cases: NCI anticancer screen, dose series, 48 h
# UO-31 renal = test system: UO-31 renal
# SR leukemia = test system: SR leukemia
# DU-145 prostate = test system: DU-145 prostate
# MDA-MB-231 breast = test system: MDA-MB-231 breast
# MDA-MB-435 = test system: MDA-MB-435
# NCI-H226 lung = test system: NCI-H226 lung
# NCI-H23 lung = test system: NCI-H23 lung
# MALME-3M melanoma = test system: MALME-3M melanoma
# OVCAR-5 ovarian = test system: OVCAR-5 ovarian
# SF-268 CNS = test system: SF-268 CNS
Structure (SMILES),GI50 (UO-31 renal) [µM],TGI (UO-31 renal),GI50 (SR leukemia) [µM],TGI (SR leukemia),GI50 (DU-145 prostate) [µM],TGI (DU-145 prostate),GI50 (MDA-MB-231 breast) [µM],TGI (MDA-MB-231 breast) [µM],GI50 (MDA-MB-435) [µM],TGI (MDA-MB-435),GI50 (NCI-H226 lung) [µM],TGI (NCI-H226 lung),GI50 (NCI-H23 lung) [µM],TGI (NCI-H23 lung),GI50 (MALME-3M melanoma) [µM],TGI (MALME-3M melanoma),GI50 (OVCAR-5 ovarian) [µM],TGI (OVCAR-5 ovarian),GI50 (SF-268 CNS) [µM],TGI (SF-268 CNS)
COc1cc2nc3sc(C(=O)Nc4ccc(C(=O)OC(C)C)cc4)c(C(=O)Nc4ccc(Cl)cc4C)n3c(=O)c2cc1OC,25.7,> 100 µM,3.05,14.1 µM,1.25,11.4 µM,11.2,38.4,9.11,> 100 µM,16.6,43.4 µM,13.6,40.5 µM,0.0691,2.44 µM,17.4,50.2 µM,9.45,43.3 µM
C[n+]1c(/C=C\c2ccc(Cl)cc2)ccc2ccccc21,72.5,> 100 µM,45.8,> 100 µM,89.8,> 100 µM,38.9,> 100,21.5,66.4 µM,72.1,> 100 µM,31,> 100 µM,11.9,36.8 µM,4.36,> 100 µM,29.8,> 100 µM
Cc1cc(N2CCCCC2)nc(N(CCCNc2ccnc3cc(Cl)ccc23)Cc2ccco2)n1,1.17,2.59 µM,1.69,4.71 µM,3.14,12.9 µM,1.73,4.24,1.65,3.68 µM,2.9,11.8 µM,1.58,3.8 µM,2.03,3.68 µM,3,15 µM,2.86,11.9 µM
C[C@@H]1CN(C(=O)c2ccc(NC(=O)c3cc(O[C@H](C)c4c(Cl)ccc(F)c4Cl)c(N)nn3)cc2)C[C@H](C)N1,3.26,14 µM,0.0104,2.78 µM,6.7,19.2 µM,2.1,8,1.88,16.8 µM,3.9,22.5 µM,3.17,20.6 µM,0.808,2.94 µM,2.76,17.6 µM,4.5,17.7 µM
CCOC(=O)/C(=C\c1ccc(O)c(OC)c1)C(=O)c1ccccc1,,> 51 µM,,62.7 µM,,61.4 µM,,,,,,> 53 µM,,23.7 µM,,> 49 µM,,> 59.3 µM,,28.1 µM
COC(=O)NC1C(C)OC(OC2C/C=C(/C)C3C=CC4C(OC5CC(OC6CC(O)C(OC7CC(O)C(OC)C(C)O7)C(C)O6)C(O)C(C)O5)C(C)CC(C)C4C3(C)/C(O)=C3\C(=O)OC4(CC(C)C(CO)=CC4/C=C\2C)C3=O)CC1(C)[N+](=O)[O-] (configuration not stated),14.4,50 µM and 34.3 µM,23.2,50 µM and > 100 µM,,27.5 µM,,36,,17 µM,10,22.3 µM and 31.6 µM,8.68,17.2 µM and 27.8 µM,8.88,15.8 µM and 17.8 µM,13.4,30.7 µM and 33.7 µM,,50 µM and 55.1 µM
C=C1C(=O)O[C@@H]2C[C@@]3(C)CCC[C@H](C)C3=C[C@H]12,,17.1 µM,,4.78 µM,,24.3 µM,,27.3,,17.2 µM,,29.5 µM,,17.5 µM,,15.8 µM,,31.4 µM,,26.7 µM
C=C1C(=O)O[C@H]2[C@H]1CC/C(COC(=O)CCCCC(=O)OC/C1=C/CC[C@@]3(C)O[C@H]3[C@H]3OC(=O)C(=C)[C@@H]3CC1)=C\CC[C@@]1(C)O[C@@H]21,1.41,4.57 µM,0.584,> 100 µM,3.09,> 100 µM,1.66,3.57,2.39,8.04 µM,1.9,4.36 µM,2.76,14 µM,2.1,5.66 µM,2.32,5.94 µM,3.02,> 100 µM
COc1ccc(-c2[nH]c3ccccc3c2C=C(C#N)C#N)cc1,,> 100 µM,,,0.484,> 21.7 µM,0.543,> 22.6,0.13,0.469 µM,0.873,> 20.1 µM,0.6,> 42.8 µM,0.874,> 100 µM,2.35,> 100 µM,0.708,65.6 µM
CC[C@H](C)[C@H]1NC(=O)[C@@H](N[C@](C)(O)[C@@H](N)CC(C)C)[C@@H](C)OC(=O)[C@H](Cc2ccc(OC)cc2)N(C)C(=O)[C@@H]2CCCN2C(=O)[C@H](CC(C)C)NC(=O)[C@@H](C)C(=O)[C@H](C(C)C)OC(=O)C[C@@H]1O,0.343,3.31 µM,0.00603,0.0422 µM,0.00903,0.509 µM,0.0263,0.233,0.0151,0.397 µM,0.0175,0.501 µM,0.0122,0.146 µM,0.0117,0.133 µM,0.0204,0.799 µM,0.0132,0.348 µM
CC1=NN(c2ccccc2)C(=O)C1N=Nc1ccc([As](=O)(O)O)c(O)c1 (configuration not stated),,> 100 µM,,> 100 µM,,> 100 µM,,> 100,,> 100 µM,,> 100 µM,,> 100 µM,,> 100 µM,,> 100 µM,,> 100 µM
CCCCCCCCCCCCCC(=O)O[C@H]1CC[C@H](NC(=O)[C@H](OC)[C@H](O)[C@@H](O)[C@H](O)/C=C/C(C)C)C(=O)NC1,0.00883,22 µM,< 0.001,9.3 µM,0.00512,34.6 µM and > 100 µM,0.00638,13.5,0.00789,51.2 µM and 18.2 µM,0.00206,4.29 µM,,4.77 µM and 0.5 µM,,7.97 µM and 38.7 µM,,51.2 µM and > 100 µM,,18.8 µM and 22.5 µM
Oc1ccc2cc(Br)ccc2c1-c1c(O)ccc2cc(Br)ccc12,1.96,9.92 µM,2.52,7.43 µM,3.29,9.34 µM,1.76,4.55,3.04,11.2 µM,2.66,8.9 µM,2.23,5.82 µM,2.19,6.05 µM,4.23,15.6 µM,3.27,13.2 µM
CCOc1cccc(/C=N/NC(=O)c2ccc(Nc3ccnc(C(F)(F)F)c3)cc2)c1O,0.781,> 25.7 µM,0.236,> 100 µM,2.46,> 100 µM,1.7,> 100,6.19,> 100 µM,2.08,22.5 µM,2.26,38.6 µM,2.29,> 47.8 µM,7.18,> 100 µM,1.07,> 100 µM
C1=Cc2ccccc2Nc2ccccc21,> 100,> 100 µM,> 100,> 100 µM,> 100,> 100 µM,> 100,> 100,> 100,> 100 µM,> 100,> 100 µM,> 100,> 100 µM,> 100,> 100 µM,> 100,> 100 µM,> 100,> 100 µM
CC1=C(C(=O)Nc2ccc(F)c(Cl)c2)C(c2ccccc2Cl)NC(=S)N1 (configuration not stated),21.3,> 50 µM,23.1,> 50 µM,> 50,> 50 µM,19.6,> 50,30.1,> 50 µM,,,> 50,> 50 µM,,,> 50,> 50 µM,27.6,> 50 µM
CC1CC2(C)ON=C(c3ccccc3)N2c2ccccc2S1 (configuration not stated),28.1,,34.6,,54.5,,,,26,93.3 µM,,,28.1,97.5 µM,,,34.3,,36.3,
COc1ccc2c(=O)c(C)c(-c3ccccc3)oc2c1CN(C)C,,> 100 µM,,> 100 µM,,,,,,,,> 100 µM,,> 100 µM,,> 100 µM,,> 100 µM,,> 100 µM
N#C/C(=C\c1ccc(-c2ccc(Cl)cc2)o1)C(=O)Nc1ncc(Cc2ccc(Cl)cc2)s1,2.48,7.87 µM,0.772,6.48 µM,2.53,13.5 µM,1.64,4.4,2.65,> 100 µM,2.08,5.41 µM,1.82,4.17 µM,,,3.73,> 100 µM,2.68,19.8 µM
Cc1cc(NS(=O)(=O)c2ccc(N=Nc3cc(N=Nc4ccc(S(=O)(=O)Nc5cc(C)nc(C)n5)cc4)c4c(NC(=O)C(Cl)Cl)cccc4c3OC(=O)C(Cl)Cl)cc2)nc(C)n1 (tested in a mixture with another compound),,37.4 µM,,94.8 µM,,,,,,,,44.9 µM,,78.3 µM,,40.8 µM,,30.6 µM,,98.3 µM
[O-]c1c2c(nn1-c1ccccc1)c1ccccc1c[n+]2Cc1ccccc1,,> 100 µM,,> 100 µM,,,,,,,,> 100 µM,,> 100 µM,,> 100 µM,,> 100 µM,,> 100 µM
CCC[CH2][Sn]1([CH2]CCC)[O]C(=O)c2cc(I)cc(I)c2[O]1,1.49,2.82 µM,0.279,1.7 µM,,,,,,,1.75,3.29 µM,1.18,2.9 µM,1,2.23 µM,1.99,3.48 µM,1.29,2.89 µM
COc1cc(C(=O)c2ccc3c(c2)OCO3)cc(OC)c1OC,2.93,38.2 µM,0.348,> 87.7 µM,3.51,> 65.7 µM,8.65,> 100,0.2,0.502 µM,8.76,> 100 µM,4.93,> 100 µM,,,8.96,> 100 µM,5.56,> 100 µM
COc1cc(C2=NN(C)C(c3ccc([N+](=O)[O-])o3)C2)cc(OC)c1OC (configuration not stated),,> 100 µM,,38.6 µM,,,,,,,,> 100 µM,,> 100 µM,,> 100 µM,,> 100 µM,,> 100 µM
O=c1cc(-c2cccc(C(F)(F)F)c2)[nH]c2cc3c(cc12)OCO3,0.315,,,> 100 µM,,,,30.1,0.175,1.95 µM and 0.366 µM,,,0.276,,,> 100 µM,> 100,50 µM and > 100 µM,,
C/C(CC(=O)Nc1ccc(Cl)c(Cl)c1)=N/NC(=O)C[n+]1ccccc1,,> 100 µM,,51.2 µM,,,,,,,,> 100 µM,,> 100 µM,,> 100 µM,,> 100 µM,,> 100 µM
Oc1ccccc1-c1nn(CNc2cccc(Cl)c2)c(=S)o1,> 100,> 100 µM,15.1,49.4 µM,,,60.2,> 100,77.1,> 100 µM,54.2,> 100 µM,22.8,71.8 µM,,,> 100,> 100 µM,59.4,> 100 µM
C/C=C(\C)C(=O)N[C@H]1CC[C@]2(C)C3CC[C@@]4(C)C(CC[C@@H]4C(C)N(C)C)C3CCC2[C@H]1OC(C)=O (some centres not stated),1.24,2.54 µM,,,2.85,10.9 µM,1.91,4.02,1.13,2.84 µM,2.38,7.53 µM,1.91,5.01 µM,1.91,3.73 µM,2.06,5.65 µM,1.39,2.89 µM
COc1ccc(C(=O)OCC2OC(n3cnc4c(=S)nc[nH]c43)C(OC(=O)c3ccc(OC)cc3)C2OC(=O)c2ccc(OC)cc2)cc1 (configuration not stated),,> 100 µM,,> 100 µM,,,,,,,,> 100 µM,,> 100 µM,,> 100 µM,,> 100 µM,,> 100 µM
